# Results as given in US20090270394A1, “CYCLYLAMINE DERIVATIVES AS CALCIUM CHANNEL BLOCKERS” (priority 2008, published 2009).
# Experiments:
# T-type calcium channels = conditions: cited from earlier work
# Human Cav2.2 channels = target: T1, Human Cav2.2 channels (Homo sapiens, UniProt Q00975); assay: Fluorescent assay for Cav2.2 channels using potassium depolarization to initiate channel opening; type: cell-based; conditions: for inhibition at 10 µM: 10 μM compound, read-out: Cav 2.2 Activity % Inh at 10 μM; for inhibition at 30 µM: 30 μM compound, read-out: Cav 2.2 Activity % Inh at 30 μM
# T1 construct: expressed in transfected cells
# T1 sequence (Q00975 whole entry): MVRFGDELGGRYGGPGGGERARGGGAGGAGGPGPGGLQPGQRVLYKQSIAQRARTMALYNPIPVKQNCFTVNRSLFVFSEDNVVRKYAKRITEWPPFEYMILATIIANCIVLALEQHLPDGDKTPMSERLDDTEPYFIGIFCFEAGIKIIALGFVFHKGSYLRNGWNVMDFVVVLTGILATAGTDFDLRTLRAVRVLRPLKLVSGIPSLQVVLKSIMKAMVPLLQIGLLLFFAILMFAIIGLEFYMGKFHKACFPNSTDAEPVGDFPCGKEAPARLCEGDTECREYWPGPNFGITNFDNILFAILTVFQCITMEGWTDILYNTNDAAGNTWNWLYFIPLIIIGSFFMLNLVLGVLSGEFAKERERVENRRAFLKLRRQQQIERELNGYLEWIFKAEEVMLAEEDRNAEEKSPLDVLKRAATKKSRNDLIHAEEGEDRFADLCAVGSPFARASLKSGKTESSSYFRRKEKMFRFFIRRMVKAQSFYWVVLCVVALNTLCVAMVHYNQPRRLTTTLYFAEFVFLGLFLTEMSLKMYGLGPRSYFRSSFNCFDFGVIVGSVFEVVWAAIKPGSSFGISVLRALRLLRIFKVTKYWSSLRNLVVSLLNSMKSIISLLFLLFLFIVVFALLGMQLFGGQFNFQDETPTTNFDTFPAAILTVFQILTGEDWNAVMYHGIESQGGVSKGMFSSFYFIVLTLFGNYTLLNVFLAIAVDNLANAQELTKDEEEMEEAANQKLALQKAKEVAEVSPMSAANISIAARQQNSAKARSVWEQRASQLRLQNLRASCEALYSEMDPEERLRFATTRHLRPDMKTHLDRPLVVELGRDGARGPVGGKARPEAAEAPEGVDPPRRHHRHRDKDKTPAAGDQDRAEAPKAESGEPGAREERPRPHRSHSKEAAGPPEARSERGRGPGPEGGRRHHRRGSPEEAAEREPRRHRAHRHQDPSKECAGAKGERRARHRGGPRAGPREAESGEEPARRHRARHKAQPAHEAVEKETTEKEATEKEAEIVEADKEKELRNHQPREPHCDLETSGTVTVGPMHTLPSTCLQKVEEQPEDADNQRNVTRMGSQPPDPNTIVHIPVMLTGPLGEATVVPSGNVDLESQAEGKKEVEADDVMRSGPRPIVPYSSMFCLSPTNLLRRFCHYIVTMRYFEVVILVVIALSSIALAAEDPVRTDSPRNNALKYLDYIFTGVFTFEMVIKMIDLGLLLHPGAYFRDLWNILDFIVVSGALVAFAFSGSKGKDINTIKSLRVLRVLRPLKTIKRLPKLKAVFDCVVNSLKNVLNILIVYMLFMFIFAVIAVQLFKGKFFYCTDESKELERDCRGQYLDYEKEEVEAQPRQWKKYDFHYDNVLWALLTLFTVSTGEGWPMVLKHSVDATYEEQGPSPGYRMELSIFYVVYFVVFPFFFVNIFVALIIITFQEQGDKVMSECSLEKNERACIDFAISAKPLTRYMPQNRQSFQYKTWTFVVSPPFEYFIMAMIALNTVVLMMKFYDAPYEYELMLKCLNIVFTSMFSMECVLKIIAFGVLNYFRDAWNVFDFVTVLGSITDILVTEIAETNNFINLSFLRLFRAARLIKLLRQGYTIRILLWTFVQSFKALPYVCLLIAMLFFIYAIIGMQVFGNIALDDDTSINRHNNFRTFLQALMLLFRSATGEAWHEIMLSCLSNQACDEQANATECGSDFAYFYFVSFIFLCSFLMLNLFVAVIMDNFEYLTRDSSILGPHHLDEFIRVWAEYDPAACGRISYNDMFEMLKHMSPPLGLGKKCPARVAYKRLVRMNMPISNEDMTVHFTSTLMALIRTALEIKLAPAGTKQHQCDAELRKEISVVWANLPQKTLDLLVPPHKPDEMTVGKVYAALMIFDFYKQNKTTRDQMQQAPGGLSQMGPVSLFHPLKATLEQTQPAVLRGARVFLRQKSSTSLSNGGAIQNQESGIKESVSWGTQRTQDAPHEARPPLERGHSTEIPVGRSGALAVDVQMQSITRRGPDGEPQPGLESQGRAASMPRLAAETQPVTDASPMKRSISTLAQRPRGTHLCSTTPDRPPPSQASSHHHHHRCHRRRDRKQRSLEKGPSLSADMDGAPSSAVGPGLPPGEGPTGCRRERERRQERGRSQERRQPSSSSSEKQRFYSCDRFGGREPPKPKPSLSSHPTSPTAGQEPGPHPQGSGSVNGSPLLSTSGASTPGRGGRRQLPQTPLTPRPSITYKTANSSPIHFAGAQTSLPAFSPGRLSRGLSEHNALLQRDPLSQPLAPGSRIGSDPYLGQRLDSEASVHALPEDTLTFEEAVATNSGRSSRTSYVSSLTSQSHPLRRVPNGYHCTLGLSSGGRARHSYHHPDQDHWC
# T1 sequence (P54289 25-1103 partner): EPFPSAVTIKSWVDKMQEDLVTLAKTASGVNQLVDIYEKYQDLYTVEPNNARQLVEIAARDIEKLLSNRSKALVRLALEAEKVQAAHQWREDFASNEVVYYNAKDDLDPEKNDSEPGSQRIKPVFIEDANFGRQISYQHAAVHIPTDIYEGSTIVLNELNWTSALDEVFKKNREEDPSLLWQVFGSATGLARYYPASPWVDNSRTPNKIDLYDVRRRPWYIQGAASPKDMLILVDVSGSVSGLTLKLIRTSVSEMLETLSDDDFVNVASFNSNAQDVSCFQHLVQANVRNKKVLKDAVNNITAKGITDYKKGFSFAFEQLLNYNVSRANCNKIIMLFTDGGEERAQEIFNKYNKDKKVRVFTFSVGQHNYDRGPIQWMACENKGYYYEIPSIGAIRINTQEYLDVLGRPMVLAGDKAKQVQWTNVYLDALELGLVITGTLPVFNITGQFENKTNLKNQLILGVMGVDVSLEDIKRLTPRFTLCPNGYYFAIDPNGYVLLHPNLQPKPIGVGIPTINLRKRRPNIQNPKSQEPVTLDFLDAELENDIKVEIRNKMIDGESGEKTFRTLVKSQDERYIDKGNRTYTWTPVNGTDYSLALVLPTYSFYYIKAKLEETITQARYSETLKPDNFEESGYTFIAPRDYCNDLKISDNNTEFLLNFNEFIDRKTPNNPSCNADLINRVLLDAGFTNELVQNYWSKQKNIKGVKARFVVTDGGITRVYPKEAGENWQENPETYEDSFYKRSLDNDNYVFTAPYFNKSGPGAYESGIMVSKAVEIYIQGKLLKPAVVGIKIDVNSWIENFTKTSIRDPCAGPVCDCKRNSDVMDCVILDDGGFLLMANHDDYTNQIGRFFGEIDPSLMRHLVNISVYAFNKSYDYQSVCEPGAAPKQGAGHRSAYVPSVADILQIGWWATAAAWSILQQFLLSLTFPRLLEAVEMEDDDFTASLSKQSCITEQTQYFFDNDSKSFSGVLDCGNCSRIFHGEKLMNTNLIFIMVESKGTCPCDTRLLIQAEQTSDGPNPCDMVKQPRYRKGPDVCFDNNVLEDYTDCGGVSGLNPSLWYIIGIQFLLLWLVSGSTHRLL
# T1 sequence (P54284 whole entry partner): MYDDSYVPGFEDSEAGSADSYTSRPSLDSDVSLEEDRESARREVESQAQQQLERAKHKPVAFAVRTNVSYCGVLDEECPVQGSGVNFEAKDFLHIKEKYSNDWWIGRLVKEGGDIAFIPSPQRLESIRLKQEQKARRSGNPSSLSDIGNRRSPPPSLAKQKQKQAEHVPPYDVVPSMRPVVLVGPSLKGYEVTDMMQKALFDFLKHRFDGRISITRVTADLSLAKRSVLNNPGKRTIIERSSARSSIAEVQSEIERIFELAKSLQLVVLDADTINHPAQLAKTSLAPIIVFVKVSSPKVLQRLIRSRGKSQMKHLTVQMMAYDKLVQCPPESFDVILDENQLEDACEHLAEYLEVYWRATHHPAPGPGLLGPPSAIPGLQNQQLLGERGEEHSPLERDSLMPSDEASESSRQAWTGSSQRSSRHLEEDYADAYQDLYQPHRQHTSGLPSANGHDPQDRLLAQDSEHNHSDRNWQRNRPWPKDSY
# Summary of the method: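 HEK293 cells stably expressing human Cav2.2 with alpha2-delta and beta subunits plus Kir2.3, dye-loaded, then held 30 min at 25° C. in 4, 12, 25 or 30 mM K+ pre-polarization buffer with compound.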
structure (smiles),measurement,setting,value
COCC(=O)O[C@]1(CCN(C)CCCc2nc3ccccc3[nH]2)CCc2cc(F)ccc2[C@@H]1C(C)C [Mibefradil],fold selective for T-type over L-type channels,T-type calcium channels,10-30 fold
"CC(C)(C)c1cc(NC(=O)C2(NCc3ccccc3)CCCCC2)cc(C(C)(C)C)c1 [Compound 43, 1-(benzylamino)-N-(3,5-di-tert-butylphenyl)cyclohexanecarboxamide]",inhibition at 10 µM,Human Cav2.2 channels,76.2%
same,inhibition at 30 µM,Human Cav2.2 channels,82.5%
"CC(C)(C)c1cc(C(=O)NC2(C(=O)NCc3ccccc3)CCNCC2)cc(C(C)(C)C)n1 [Compound 64, N-(4-(benzylcarbamoyl)piperidin-4-yl)-2,6-di-tert-butylisonicotinamide]",inhibition at 10 µM,Human Cav2.2 channels,69.5%
same,inhibition at 30 µM,Human Cav2.2 channels,104%
"CC(C)(C)c1cc(C(=O)NC2(C(=O)O)CCCCC2)cc(C(C)(C)C)c1 [Compound 34, 1-(3,5-di-tert-butylbenzamido)cyclohexanecarboxylic acid]",inhibition at 10 µM,Human Cav2.2 channels,68.2%
same,inhibition at 30 µM,Human Cav2.2 channels,82.3%
